In ChEMBL document CHEMBL1201862, “PubChem BioAssay data set” (2004):
Where “and” joins values, the source holds several entries; their conditions need not be identical. Equal values may be shown once. Calls of active or inactive are those of the source.

Columns and labels:
[1] = growth suppression of PTEN-null colon cells, dose response, cell-based, HCT116 PTEN knockout (AID 1047); assay type: functional;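 also: HCT116 colon tumor cells with PTEN knocked out; cells exposed to compound for 60 hours before readout; potency for loss of cell viability measured by luminescence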
[2] = growth suppression of beta-catenin-knockout colon cells, dose response, cell-based, HCT116, human colon tumor (AID 1045); assay type: functional;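 also: HCT116 colon tumor cells with beta catenin knocked out; cells exposed to compound for 60 hours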
[3] = biological target: T1, Voltage-gated N-type calcium channel alpha-1B subunit/Amyloid beta A4 precursor protein-binding family A member 1 (Homo sapiens, UniProt Q00975+Q02410); assay type: protein assay
T1 sequence (Q00975 whole entry): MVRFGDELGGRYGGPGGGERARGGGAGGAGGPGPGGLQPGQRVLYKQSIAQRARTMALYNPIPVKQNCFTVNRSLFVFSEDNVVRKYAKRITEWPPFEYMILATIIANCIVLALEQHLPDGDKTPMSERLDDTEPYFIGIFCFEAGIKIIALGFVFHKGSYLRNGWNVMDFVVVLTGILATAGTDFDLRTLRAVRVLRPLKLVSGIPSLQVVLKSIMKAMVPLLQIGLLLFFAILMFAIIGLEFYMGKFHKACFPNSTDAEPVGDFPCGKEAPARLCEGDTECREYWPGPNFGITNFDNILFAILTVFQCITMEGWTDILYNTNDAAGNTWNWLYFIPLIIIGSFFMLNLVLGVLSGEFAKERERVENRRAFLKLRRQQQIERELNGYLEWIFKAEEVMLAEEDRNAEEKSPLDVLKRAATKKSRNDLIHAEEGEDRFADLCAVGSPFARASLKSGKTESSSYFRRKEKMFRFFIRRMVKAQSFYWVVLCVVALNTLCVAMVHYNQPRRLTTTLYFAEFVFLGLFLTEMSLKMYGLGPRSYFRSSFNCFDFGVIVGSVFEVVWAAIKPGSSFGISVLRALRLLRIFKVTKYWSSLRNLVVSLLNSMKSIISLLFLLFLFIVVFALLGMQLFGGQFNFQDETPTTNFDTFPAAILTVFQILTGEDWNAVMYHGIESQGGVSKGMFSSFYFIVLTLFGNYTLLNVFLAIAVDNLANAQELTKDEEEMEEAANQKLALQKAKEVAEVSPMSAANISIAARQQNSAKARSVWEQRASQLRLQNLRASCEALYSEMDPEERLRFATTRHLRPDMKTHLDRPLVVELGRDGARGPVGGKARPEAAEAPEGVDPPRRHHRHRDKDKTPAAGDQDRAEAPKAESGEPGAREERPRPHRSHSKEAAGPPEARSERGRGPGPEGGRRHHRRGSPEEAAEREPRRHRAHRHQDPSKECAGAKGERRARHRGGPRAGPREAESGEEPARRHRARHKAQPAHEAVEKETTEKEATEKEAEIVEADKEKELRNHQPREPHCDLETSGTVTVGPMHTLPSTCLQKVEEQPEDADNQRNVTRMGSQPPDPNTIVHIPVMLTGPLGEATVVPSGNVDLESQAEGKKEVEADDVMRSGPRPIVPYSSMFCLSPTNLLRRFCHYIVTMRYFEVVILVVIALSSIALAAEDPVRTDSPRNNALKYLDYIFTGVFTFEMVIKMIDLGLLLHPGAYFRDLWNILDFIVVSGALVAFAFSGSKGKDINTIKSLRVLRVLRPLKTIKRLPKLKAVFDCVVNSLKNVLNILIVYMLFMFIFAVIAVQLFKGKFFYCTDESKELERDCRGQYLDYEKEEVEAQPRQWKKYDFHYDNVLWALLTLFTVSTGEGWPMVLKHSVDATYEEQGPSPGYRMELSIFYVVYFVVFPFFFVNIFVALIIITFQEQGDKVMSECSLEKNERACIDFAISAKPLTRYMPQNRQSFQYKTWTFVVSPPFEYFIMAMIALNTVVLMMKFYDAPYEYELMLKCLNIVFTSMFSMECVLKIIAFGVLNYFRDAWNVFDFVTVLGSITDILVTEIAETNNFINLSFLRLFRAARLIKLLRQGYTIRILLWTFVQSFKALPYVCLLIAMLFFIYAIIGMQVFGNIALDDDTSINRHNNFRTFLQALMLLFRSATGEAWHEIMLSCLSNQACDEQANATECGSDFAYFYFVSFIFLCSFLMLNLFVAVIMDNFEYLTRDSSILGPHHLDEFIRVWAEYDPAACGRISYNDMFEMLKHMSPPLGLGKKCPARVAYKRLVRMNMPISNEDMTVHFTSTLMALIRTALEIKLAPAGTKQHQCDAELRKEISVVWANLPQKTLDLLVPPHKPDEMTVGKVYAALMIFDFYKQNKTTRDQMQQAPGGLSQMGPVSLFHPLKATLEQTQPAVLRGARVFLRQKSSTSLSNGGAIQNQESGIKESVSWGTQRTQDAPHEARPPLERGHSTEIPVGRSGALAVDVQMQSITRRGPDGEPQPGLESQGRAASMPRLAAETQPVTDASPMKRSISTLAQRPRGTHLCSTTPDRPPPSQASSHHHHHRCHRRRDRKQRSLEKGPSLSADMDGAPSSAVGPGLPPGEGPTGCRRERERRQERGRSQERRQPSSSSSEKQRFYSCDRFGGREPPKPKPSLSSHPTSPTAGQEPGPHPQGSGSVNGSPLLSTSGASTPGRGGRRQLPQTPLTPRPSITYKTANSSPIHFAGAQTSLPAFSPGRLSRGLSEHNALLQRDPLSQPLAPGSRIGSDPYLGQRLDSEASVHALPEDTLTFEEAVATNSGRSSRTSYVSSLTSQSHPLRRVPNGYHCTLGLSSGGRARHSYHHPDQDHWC
T1 sequence (Q02410 whole entry): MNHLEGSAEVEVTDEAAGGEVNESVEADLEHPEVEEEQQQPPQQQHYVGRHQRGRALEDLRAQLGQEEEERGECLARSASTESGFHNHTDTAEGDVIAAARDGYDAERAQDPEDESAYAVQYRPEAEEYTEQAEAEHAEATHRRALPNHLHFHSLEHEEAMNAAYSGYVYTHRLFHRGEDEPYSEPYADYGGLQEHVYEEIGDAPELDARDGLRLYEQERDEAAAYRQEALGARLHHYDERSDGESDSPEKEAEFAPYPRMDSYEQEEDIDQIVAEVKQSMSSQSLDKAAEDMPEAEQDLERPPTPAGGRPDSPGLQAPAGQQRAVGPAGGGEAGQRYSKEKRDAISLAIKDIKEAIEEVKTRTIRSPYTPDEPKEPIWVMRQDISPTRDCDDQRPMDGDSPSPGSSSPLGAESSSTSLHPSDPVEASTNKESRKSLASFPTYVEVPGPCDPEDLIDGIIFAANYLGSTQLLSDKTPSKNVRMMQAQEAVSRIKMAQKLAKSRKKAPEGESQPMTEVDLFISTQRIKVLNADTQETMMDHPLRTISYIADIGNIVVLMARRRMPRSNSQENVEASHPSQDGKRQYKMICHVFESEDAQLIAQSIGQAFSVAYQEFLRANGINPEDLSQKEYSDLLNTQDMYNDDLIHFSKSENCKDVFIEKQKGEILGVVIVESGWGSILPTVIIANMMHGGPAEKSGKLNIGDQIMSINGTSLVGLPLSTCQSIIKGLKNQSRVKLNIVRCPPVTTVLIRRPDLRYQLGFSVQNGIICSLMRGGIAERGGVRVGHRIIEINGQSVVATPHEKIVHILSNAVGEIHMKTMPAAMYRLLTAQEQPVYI

Large T antigen = Large T antigen (Simian virus 40, UniProt P03070); assay type: functional, Betapolyomavirus macacae;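 also: Confirmatory-stage PubChem screen for compounds that inhibit SV40 T antigen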
[4] = biological target: T1, Voltage-gated N-type calcium channel alpha-1B subunit/Amyloid beta A4 precursor protein-binding family A member 1; assay type: protein assay; remark: listed apart in the source
[5] = biological target: T2, Short transient receptor potential channel 4 (Mus musculus, UniProt Q9QUQ5); assay: mouse TRPC4 channel inhibitors, dose response, cell-based, HEK293 TRPC4/mu-opioid, Fluo-4 calcium (AID 434942); assay type: functional;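 also: potency of inhibitors blocking the TRPC4 calcium response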
T2 sequence (Q9QUQ5 whole entry): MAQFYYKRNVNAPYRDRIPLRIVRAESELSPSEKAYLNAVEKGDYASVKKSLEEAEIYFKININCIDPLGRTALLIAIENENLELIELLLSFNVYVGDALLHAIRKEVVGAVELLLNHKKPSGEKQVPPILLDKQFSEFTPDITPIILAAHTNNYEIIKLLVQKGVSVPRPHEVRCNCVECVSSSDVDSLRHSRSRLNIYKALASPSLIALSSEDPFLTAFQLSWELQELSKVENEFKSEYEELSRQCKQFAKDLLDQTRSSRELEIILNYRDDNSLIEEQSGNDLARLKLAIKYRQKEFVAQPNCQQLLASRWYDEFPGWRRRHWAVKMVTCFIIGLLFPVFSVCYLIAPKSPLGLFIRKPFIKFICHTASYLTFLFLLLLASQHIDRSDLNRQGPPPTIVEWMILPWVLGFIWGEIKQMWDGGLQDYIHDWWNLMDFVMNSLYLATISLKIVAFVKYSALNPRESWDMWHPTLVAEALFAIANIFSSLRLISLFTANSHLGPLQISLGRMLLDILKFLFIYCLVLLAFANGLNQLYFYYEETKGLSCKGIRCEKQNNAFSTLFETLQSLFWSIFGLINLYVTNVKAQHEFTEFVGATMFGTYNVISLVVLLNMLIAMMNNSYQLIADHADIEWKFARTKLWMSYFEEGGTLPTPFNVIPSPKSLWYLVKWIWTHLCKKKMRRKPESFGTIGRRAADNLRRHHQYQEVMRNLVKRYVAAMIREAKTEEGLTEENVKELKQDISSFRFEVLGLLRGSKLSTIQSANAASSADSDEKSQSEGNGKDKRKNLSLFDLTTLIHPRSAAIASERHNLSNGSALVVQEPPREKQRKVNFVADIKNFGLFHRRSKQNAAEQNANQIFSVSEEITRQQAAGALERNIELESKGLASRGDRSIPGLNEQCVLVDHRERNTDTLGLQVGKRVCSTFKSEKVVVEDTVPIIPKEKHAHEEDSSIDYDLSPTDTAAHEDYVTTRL

HEK293 [6] = assay: NOD2 signaling inhibitors in MDP-stimulated cells, cell-based, uHTS, luminescence (AID 2001); assay type: functional; conditions: Homo sapiens
[7] = cytotoxicity in KRAS-transformed pancreatic duct cells, primary screen, cell-based, fluorescence, HTS (AID 431); assay type: functional; conditions: Homo sapiens;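 also: cell line used: HPDE-C7K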
[8] = biological target: Nucleotide-binding oligomerization domain-containing protein 2 (Homo sapiens, UniProt Q9HC29); assay: NOD2 signaling inhibitors, cell-based, luminescence, uHTS, HEK293 (AID 1566); assay type: functional
Chain of Nucleotide-binding oligomerization domain-containing protein 2 (Q9HC29 whole entry, the tested form may be a part): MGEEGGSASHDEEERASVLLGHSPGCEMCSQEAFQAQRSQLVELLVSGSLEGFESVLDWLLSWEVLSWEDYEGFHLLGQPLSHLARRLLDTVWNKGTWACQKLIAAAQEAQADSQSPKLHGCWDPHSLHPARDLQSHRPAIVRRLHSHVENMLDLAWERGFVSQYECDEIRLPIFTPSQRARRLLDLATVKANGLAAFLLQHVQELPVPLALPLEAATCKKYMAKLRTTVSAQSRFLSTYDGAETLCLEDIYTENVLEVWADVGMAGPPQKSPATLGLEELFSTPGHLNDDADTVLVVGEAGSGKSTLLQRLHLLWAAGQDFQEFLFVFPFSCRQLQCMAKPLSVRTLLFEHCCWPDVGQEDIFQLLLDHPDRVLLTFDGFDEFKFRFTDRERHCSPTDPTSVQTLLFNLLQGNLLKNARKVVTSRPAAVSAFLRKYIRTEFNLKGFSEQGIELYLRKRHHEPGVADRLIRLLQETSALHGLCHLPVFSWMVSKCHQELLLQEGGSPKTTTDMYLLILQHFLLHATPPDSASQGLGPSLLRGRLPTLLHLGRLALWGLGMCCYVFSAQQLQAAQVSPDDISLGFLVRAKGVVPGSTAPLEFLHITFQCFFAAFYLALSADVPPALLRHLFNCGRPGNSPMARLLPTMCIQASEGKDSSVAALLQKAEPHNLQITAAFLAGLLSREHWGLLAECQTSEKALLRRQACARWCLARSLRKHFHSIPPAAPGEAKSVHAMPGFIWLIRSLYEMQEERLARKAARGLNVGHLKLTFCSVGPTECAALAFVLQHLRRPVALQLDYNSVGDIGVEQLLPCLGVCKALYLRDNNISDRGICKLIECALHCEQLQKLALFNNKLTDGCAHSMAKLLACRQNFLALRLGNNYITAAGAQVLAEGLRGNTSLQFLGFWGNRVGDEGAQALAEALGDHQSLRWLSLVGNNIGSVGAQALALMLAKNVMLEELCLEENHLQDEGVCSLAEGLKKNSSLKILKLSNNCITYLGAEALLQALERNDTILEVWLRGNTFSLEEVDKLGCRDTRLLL

[9] = cytotoxicity in HPDE-C7 cells, cell-based, fluorescence, HTS (AID 430); assay type: functional; conditions: Homo sapiens
HEK293 [10] = assay: NOD1 signaling inhibitors, primary screen, cell-based, luminescence, uHTS (AID 1578); assay type: functional; conditions: Homo sapiens
HEK293 [11] = assay: cells; assay type: functional, cell-based; conditions: Homo sapiens
HEK293 [12] = assay: cells; assay type: functional, cell-based; conditions: Homo sapiens; remark: listed apart in the source
HEK293 [13] = assay: cells; assay type: functional, cell-based; conditions: Homo sapiens; remark: listed apart in the source
[14] = biological target: T3, Heat shock factor protein 1 (Mus musculus, UniProt P38532); assay: HSF1 potentiators in luciferase reporter cells, confirmation, cell-based, NIH3T3, luminescence, dose retest (AID 435004); assay type: functional;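 also: stress induced by proteasome inhibitor MG132 added 30 min after compound; luciferase reporter driven by HSF1 response element in NIH3T3 cells; actives raise luminescence as potentiators of the MG132 stress response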
T3 sequence (P38532 whole entry): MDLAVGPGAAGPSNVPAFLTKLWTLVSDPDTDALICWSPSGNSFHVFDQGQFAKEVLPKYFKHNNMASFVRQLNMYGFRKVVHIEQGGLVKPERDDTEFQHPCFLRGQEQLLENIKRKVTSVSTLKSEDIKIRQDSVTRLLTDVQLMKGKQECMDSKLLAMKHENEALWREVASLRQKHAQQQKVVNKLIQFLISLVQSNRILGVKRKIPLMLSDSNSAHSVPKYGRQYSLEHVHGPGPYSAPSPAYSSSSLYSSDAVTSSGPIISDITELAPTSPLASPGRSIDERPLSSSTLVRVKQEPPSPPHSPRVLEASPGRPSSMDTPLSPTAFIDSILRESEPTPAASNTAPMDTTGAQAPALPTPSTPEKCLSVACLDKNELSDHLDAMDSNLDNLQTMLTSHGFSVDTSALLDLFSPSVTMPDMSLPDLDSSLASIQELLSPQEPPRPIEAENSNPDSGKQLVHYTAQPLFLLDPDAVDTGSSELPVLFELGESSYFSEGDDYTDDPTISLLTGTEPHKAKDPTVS

[15] = biological target: T4, Microphthalmia-associated transcription factor (Homo sapiens, UniProt O75030); assay: TRPM1 promoter luciferase signal decrease, dose response, MITF inhibitor project, cell-based, SK-MEL-5, cherry-picked, set 3 (AID 493073); assay type: functional
T4 sequence (O75030 whole entry): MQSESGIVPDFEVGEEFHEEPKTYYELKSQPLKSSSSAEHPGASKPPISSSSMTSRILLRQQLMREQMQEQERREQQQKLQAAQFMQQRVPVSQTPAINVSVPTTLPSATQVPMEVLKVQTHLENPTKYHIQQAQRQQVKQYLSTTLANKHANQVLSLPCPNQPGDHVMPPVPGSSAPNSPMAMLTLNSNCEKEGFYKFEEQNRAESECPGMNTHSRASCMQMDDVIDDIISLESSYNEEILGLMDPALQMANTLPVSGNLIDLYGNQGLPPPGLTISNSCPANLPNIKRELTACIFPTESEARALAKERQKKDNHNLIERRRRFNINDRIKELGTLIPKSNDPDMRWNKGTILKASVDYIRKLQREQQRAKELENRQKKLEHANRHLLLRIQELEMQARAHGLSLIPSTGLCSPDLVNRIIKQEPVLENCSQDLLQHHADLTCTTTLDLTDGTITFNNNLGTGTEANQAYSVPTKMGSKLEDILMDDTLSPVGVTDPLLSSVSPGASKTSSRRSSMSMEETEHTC

Protein RecA = biological target: T5, Protein RecA (Mycobacterium tuberculosis, UniProt P9WHJ3); assay: Fluorescence Cell-Free Homogeneous Dose Retest to Identify Inhibitors of RecA-Intein Splicing Activity. [Related pubchem assays (depositor defined):AID2097, AID2223, AID489010, AID492950]; assay type: functional
T5 sequence (P9WHJ3 whole entry): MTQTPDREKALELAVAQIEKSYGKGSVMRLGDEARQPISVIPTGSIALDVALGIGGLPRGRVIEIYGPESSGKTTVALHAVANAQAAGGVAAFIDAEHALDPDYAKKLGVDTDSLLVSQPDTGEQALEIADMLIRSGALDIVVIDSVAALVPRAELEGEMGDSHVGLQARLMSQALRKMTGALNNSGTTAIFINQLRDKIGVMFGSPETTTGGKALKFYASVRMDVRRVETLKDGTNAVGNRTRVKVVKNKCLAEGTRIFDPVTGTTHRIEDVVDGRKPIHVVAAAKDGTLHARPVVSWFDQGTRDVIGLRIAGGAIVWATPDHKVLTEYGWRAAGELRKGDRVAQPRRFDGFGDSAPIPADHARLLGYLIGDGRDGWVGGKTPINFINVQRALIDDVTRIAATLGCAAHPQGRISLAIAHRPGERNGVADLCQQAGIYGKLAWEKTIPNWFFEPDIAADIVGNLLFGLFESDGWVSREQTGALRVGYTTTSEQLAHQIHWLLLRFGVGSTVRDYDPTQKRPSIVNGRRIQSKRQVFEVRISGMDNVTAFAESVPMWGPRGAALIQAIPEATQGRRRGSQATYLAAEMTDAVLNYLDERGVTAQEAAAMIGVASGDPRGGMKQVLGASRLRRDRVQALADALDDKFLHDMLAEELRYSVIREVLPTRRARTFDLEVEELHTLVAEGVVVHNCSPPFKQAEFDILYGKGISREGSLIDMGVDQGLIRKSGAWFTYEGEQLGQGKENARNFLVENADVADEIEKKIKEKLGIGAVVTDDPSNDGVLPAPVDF

[16] = biological target: T6, Replicative DNA helicase DnaB (Mycobacterium tuberculosis, UniProt P9WMR3); assay: DnaB intein splicing inhibitors, dose response, biochemical, cell-free fluorescence (AID 449749); assay type: functional
T6 sequence (P9WMR3 whole entry): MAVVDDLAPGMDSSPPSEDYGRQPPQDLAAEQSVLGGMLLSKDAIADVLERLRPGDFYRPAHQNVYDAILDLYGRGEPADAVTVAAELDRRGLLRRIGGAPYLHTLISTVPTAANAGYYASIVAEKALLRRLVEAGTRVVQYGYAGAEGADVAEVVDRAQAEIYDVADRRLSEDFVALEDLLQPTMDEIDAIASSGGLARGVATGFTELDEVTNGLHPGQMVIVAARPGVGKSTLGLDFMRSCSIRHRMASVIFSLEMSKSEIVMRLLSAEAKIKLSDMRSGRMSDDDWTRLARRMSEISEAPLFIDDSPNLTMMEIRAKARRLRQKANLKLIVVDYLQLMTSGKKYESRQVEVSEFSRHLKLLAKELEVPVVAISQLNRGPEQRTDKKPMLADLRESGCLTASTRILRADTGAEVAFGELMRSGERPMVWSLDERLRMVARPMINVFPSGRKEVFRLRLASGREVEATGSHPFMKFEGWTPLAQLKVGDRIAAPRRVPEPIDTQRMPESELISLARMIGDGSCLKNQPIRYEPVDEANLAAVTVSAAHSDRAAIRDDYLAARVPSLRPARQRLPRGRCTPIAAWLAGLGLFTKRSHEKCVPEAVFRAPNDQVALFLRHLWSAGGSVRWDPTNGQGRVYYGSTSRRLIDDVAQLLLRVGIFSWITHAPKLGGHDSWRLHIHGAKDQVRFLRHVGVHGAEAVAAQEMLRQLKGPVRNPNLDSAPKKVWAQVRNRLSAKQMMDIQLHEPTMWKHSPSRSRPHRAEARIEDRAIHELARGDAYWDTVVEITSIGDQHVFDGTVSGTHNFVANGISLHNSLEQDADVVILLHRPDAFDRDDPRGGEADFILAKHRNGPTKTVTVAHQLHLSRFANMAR

[17] = biological target: Glyceraldehyde-3-phosphate dehydrogenase (Homo sapiens, UniProt P04406)
Chain of Glyceraldehyde-3-phosphate dehydrogenase (P04406 whole entry): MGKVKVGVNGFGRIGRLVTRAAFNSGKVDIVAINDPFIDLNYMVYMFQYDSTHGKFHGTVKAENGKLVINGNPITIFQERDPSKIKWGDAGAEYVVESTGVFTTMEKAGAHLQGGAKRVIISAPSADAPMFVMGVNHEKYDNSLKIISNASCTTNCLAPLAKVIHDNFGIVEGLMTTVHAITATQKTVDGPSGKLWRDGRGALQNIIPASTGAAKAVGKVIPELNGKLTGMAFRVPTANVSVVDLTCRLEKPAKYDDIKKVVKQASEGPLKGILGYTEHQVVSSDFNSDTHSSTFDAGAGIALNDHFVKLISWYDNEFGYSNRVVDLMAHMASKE

[18] = biological target: Alkaline phosphatase, placental type (Homo sapiens, UniProt P05187); assay: PLAP enzyme inhibitors, confirmation, biochemical, luminescence (AID 1512); assay type: functional
Chain of Alkaline phosphatase, placental type (P05187 whole entry): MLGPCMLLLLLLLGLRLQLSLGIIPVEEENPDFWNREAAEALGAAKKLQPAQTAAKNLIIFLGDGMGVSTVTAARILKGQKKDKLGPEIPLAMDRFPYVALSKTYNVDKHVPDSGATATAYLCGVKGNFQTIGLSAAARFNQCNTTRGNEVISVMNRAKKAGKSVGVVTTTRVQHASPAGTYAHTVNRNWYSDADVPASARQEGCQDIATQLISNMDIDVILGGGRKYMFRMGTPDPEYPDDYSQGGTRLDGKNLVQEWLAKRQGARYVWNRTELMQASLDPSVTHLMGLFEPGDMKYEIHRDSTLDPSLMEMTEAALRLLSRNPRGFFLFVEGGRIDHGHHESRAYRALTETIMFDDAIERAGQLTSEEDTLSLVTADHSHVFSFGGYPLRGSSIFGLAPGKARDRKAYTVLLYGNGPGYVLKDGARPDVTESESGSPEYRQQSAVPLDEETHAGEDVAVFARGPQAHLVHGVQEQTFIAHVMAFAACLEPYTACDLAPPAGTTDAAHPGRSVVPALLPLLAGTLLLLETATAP

[19] = biological target: T7, Alkaline phosphatase, tissue-nonspecific isozyme (Homo sapiens, UniProt P05186); assay: human TNAP enzyme inhibitors, SAR follow-up, biochemical, luminescent, dose response (AID 1056)
T7 sequence (P05186 whole entry): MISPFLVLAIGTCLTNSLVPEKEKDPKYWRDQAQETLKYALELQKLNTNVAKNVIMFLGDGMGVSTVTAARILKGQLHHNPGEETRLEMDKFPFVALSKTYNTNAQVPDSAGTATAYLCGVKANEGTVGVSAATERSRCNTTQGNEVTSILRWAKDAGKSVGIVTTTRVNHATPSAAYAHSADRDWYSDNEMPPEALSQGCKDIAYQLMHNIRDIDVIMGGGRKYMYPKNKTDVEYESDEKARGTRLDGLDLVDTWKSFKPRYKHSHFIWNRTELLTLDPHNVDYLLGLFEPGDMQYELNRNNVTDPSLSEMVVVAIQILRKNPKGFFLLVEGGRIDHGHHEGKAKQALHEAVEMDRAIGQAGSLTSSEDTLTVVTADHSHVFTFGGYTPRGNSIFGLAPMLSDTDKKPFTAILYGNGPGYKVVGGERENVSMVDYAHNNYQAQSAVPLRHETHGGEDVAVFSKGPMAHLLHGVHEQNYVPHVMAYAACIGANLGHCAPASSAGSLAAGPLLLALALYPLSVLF

## Cc1cc(C)c2c(=O)n(CC(=O)NCCCN3CCN(c4ccccc4F)CC3)sc2n1
[1]
  EC50: 18 µM (active)
[2]
  EC50: 17 µM (active)
[3]
  IC50: 12.4 µM (active)
Large T antigen
  IC50: 14.3 µM (active)
[4]
  IC50: 48.8 µM (active)
[5]
  EC50: 0.0013 µM (active)

## Cc1cc(NC(=O)CCS(=O)(=O)c2nc(-c3ccccc3)cc(C(F)(F)F)n2)no1
HEK293 [6]
  IC50: 8.24 µM (inactive)
[7]
  EC50: > 20 µM (not active)
[8]
  EC50: > 20 µM (inactive)
[9]
  EC50: 9.01 µM (active)
HEK293 [10]
  EC50: > 20 µM (inactive)
HEK293 [11]
  IC50: > 20 µM (inactive)
HEK293 [12]
  IC50: 6.11 µM (active)
HEK293 [13]
  IC50: > 20 µM (inactive)

## Cc1ccc(C2=NN(C(=O)CCl)C(c3cccs3)C2)o1 (centres undefined)
HEK293 [6]
  IC50: 4.05 µM (active)
[14]
  EC50: 35.7 µM (inconclusive)
[8]
  EC50: 8.81 µM (active)
[15]
  AC50: 6.1 µM (active)
HEK293 [10]
  EC50: 8.03 µM (active)
HEK293 [11]
  IC50: > 20 µM (inactive)
Protein RecA
  EC50: 1.51 µM (active)
HEK293 [12]
  IC50: 2.11 µM (active)
HEK293 [13]
  IC50: > 20 µM (inactive)
[16]
  AC50: 1.52 µM (active)

## CCS(=O)(=O)c1nc(NC(C)=O)n[nH]1
[17]
  IC50: > 100 µM (not active)
[18]
  IC50: > 100 µM (inactive)
[19]
  IC50: 94.8 µM (active) and > 100 µM (inactive)

## O=C(CSc1nnc(-c2ccncc2)n1-c1ccc(Cl)cc1)c1ccc(O)c(O)c1
[18]
  IC50: 6.63 µM (active)
[19]
  IC50: 38.7 µM (active)
